Reference: US20250145599A1, “CERTAIN CHEMICAL ENTITIES, COMPOSITIONS, AND METHODS” (Retune Pharma Inc., priority 2022, published 2025)

What was measured:
Ba/F3-TEL-IGF-1R cells = test: CellTiter-Glo luminescent cell viability assay; assay type: cell-based; conditions: cellular IC50, Ba/F3-TEL-IGF-1R cells
Experimental: The CellTiter-Glo luminescent cell viability assay was used to determine the inhibitory activity of the compounds against IGF-1R in Ba/F3-TEL-IGF-1R cells. […] The IC50 data are designated within the following ranges: A: ≤1 μM, B: >1 μM to ≤10 μM, C: >10 μM to ≤20 μM

IGF-1R = IGF-1R (Homo sapiens, UniProt P08069); test: IGF-1R biochemical assay (ADP-Glo); conditions: read-out: IGF1R IC50
Chain of IGF-1R (P08069 31-1367): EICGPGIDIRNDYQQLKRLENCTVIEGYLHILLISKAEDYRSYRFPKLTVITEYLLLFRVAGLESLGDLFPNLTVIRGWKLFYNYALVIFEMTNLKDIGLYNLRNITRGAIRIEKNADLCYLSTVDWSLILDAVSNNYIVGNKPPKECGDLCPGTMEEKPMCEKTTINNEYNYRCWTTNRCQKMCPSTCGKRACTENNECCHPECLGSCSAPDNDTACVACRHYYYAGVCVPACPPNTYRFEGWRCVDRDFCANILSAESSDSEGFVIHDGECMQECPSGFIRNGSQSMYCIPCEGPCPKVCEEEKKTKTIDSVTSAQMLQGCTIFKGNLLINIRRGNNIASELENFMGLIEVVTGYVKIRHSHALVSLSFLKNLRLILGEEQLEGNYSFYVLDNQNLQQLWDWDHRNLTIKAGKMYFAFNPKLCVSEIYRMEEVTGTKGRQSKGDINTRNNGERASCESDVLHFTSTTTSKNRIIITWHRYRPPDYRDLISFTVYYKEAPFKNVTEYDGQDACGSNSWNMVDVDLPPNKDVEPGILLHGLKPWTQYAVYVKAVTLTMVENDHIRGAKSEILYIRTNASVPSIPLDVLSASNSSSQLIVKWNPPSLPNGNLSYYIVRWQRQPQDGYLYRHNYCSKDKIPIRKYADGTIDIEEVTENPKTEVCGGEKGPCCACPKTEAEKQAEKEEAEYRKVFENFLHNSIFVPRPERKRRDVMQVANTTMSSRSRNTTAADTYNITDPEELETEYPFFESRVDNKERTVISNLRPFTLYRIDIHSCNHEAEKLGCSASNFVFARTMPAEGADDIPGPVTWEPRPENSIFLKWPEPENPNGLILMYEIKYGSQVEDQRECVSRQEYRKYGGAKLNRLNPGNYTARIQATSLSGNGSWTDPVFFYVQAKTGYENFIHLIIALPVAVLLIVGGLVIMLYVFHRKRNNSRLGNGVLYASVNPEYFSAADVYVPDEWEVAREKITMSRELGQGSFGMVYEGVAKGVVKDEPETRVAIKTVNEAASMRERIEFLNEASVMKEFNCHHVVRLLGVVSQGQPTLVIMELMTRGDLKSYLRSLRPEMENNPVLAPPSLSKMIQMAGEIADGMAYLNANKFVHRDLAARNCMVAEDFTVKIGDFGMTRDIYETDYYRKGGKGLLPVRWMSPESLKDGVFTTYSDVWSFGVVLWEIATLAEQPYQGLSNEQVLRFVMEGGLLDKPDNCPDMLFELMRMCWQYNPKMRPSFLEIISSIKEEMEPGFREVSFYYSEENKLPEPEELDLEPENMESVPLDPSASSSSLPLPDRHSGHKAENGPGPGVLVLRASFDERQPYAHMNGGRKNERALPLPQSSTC
Experimental: The inhibitory activity against IGF-1R was measured using ADP-Glo assay. The percent (%) inhibition at each concentration of compound is calculated based on and relative to the luminescence signal in the Max and Min control wells contained within each assay plate. The Max control wells contain enzyme and substrate as 0% inhibition, and the Min control wells only contain substrate without enzyme as 100% inhibition. The concentrations and % inhibition values for tested compounds are plotted and the concentration of compound required for 50% inhibition (IC50) is determined with a four-parameter logistic dose response equation.
Table 3 provides IC50 data of representative compounds against IGF-1R using ADP-Glo assay. The IC50 data are designated within the following ranges: A: ≤0.10 μM, B: >0.10 μM to ≤1 μM, C: >1 μM to ≤20 μM

Row | IC50 (Ba/F3-TEL-IGF-1R cells) | IC50 (IGF-1R) | SMILES
1 | ≤ 1000 nM | ≤ 100 nM | COc1cc(-c2ccccc2)nc2cc(-c3nn([C@H]4C[C@@](C)(O)C4)c(N)c3C(N)=O)c(F)cc12 [Example C051, 5-amino-3-(6-fluoro-4-methoxy-2-phenylquinolin-7-yl)-1-((1s,3s)-3-hydroxy-3-methylcyclobutyl)-1H-pyrazole-4-carboxamide]
2 | ≤ 1000 nM | ≤ 100 nM | COc1cc(-c2cccc(F)c2)nc2cc(-c3nn([C@H]4C[C@@](C)(O)C4)c(N)c3C(N)=O)ccc12 [Example C048, 5-amino-3-(2-(3-fluorophenyl)-4-methoxyquinolin-7-yl)-1-((1s,3s)-3-hydroxy-3-methylcyclobutyl)-1H-pyrazole-4-carboxamide]
3 | ≤ 1000 nM | ≤ 100 nM | COc1c(F)c(-c2ccccc2)nc2c(F)c(-c3nn([C@H]4C[C@@](C)(O)C4)c(N)c3C(N)=O)ccc12 [Example C062, 5-amino-3-(3,8-difluoro-4-methoxy-2-phenylquinolin-7-yl)-1-((1s,3s)-3-hydroxy-3-methylcyclobutyl)-1H-pyrazole-4-carboxamide]
4 | ≤ 1000 nM | ≤ 100 nM | COc1cc(-c2ccccc2F)nc2c(F)c(-c3nn([C@H]4C[C@](C)(O)C4)c(N)c3C(N)=O)ccc12 [Example C050, 5-amino-3-(8-fluoro-2-(2-fluorophenyl)-4-methoxyquinolin-7-yl)-1-((1r,3r)-3-hydroxy-3-methylcyclobutyl)-1H-pyrazole-4-carboxamide]
5 | ≤ 1000 nM | ≤ 100 nM | COc1cc(-c2ccccc2)nc2c(F)c(-c3nn([C@H]4C[C@](C)(O)C4)c(N)c3C(N)=O)ccc12 [Example C045, 5-amino-3-(8-fluoro-4-methoxy-2-phenylquinolin-7-yl)-1-((lr,3r)-3-hydroxy-3-methylcyclobutyl)-1H-pyrazole-4-carboxamide]
6 | ≤ 1000 nM | ≤ 100 nM | COc1cc(-c2ccccc2F)nc2c(F)c(-c3nn([C@H]4C[C@@](C)(O)C4)c(N)c3C(N)=O)ccc12 [Example C035, 5-amino-3-(8-fluoro-2-(2-fluorophenyl)-4-methoxyquinolin-7-yl)-1-((1s,3s)-3-hydroxy-3-methylcyclobutyl)-1H-pyrazole-4-carboxamide]
7 | ≤ 1000 nM | ≤ 100 nM | CCOc1cc(-c2ccccc2)nc2cc(-c3nn([C@H]4C[C@@](C)(O)C4)c(N)c3C(N)=O)ccc12 [Example C036, 5-amino-3-(4-ethoxy-2-phenylquinolin-7-yl)-1-((1s,3s)-3-hydroxy-3-methylcyclobutyl)-1H-pyrazole-4-carboxamide]
8 |  | 100 to 1000 nM | C[C@]1(O)C[C@@H](n2nc(-c3ccc4ccc(-c5ccc(F)cc5)nc4c3)c(C(N)=O)c2N)C1 [Example C039, 5-amino-3-(2-(4-fluorophenyl)quinolin-7-yl)-1-((1s,3s)-3-hydroxy-3-methylcyclobutyl)-1H-pyrazole-4-carboxamide]
9 |  | 100 to 1000 nM | C[C@]1(O)C[C@@H](n2nc(-c3ccc4cc(F)c(-c5ccccc5)nc4c3F)c(C(N)=O)c2N)C1 [Example C059, 5-amino-3-(3,8-difluoro-2-phenylquinolin-7-yl)-1-((1s,3s)-3-hydroxy-3-methylcyclobutyl)-1H-pyrazole-4-carboxamide]
10 | ≤ 1000 nM | ≤ 100 nM | COc1c(F)c(-c2ccccc2F)nc2c(F)c(-c3nn([C@H]4C[C@@](C)(O)C4)c(N)c3C(N)=O)ccc12 [Example C061, 5-amino-3-(3,8-difluoro-2-(2-fluorophenyl)-4-methoxyquinolin-7-yl)-1-((1s,3s)-3-hydroxy-3-methylcyclobutyl)-1H-pyrazole-4-carboxamide]
11 |  | ≤ 100 nM | CCOc1cc(-c2ccccc2)nc2cc(-c3nn(C4CC(=O)C4)c(N)c3C(N)=O)ccc12 [Example C043, 5-amino-3-(4-ethoxy-2-phenylquinolin-7-yl)-1-(3-oxocyclobutyl)-1H-pyrazole-4-carboxamide]
12 |  | ≤ 100 nM | C[C@]1(O)C[C@H](n2nc(-c3ccc4ccc(-c5ccccc5F)nc4c3)c(C(N)=O)c2N)C1 [Example C040, 5-amino-3-(2-(2-fluorophenyl)quinolin-7-yl)-1-((1r,3r)-3-hydroxy-3-methylcyclobutyl)-1H-pyrazole-4-carboxamide]
13 | ≤ 1000 nM | ≤ 100 nM | COc1cc(-c2ccccc2F)nc2cc(-c3nn([C@H]4C[C@@](C)(O)C4)c(N)c3C(N)=O)ccc12 [Example C046, 5-amino-3-(2-(2-fluorophenyl)-4-methoxyquinolin-7-yl)-1-((1s,3s)-3-hydroxy-3-methylcyclobutyl)-1H-pyrazole-4-carboxamide]
14 | ≤ 1000 nM | ≤ 100 nM | COc1c(F)c(-c2ccccc2F)nc2cc(-c3nn([C@H]4C[C@@](C)(O)C4)c(N)c3C(N)=O)ccc12 [Example C063, 5-amino-3-(3-fluoro-2-(2-fluorophenyl)-4-methoxyquinolin-7-yl)-1-((1s,3s)-3-hydroxy-3-methylcyclobutyl)-1H-pyrazole-4-carboxamide]
15 | ≤ 1000 nM | ≤ 100 nM | C[C@]1(O)C[C@@H](n2nc(-c3ccc4ccc(-c5ccccc5F)nc4c3F)c(C(N)=O)c2N)C1 [Example C056, 5-amino-3-(8-fluoro-2-(2-fluorophenyl)quinolin-7-yl)-1-((1s,3s)-3-hydroxy-3-methylcyclobutyl)-1H-pyrazole-4-carboxamide]
16 |  | ≤ 100 nM | C[C@]1(O)C[C@@H](n2nc(-c3ccc4ccc(-c5cccc(F)c5)nc4c3)c(C(N)=O)c2N)C1 [Example C041, 5-amino-3-(2-(3-fluorophenyl)quinolin-7-yl)-1-((1s,3s)-3-hydroxy-3-methylcyclobutyl)-1H-pyrazole-4-carboxamide]
17 |  | ≤ 100 nM | C[C@]1(O)C[C@@H](n2nc(-c3ccc4ccc(-c5ccccc5F)nc4c3)c(C(N)=O)c2N)C1 [Example C037, 5-amino-3-(2-(2-fluorophenyl)quinolin-7-yl)-1-((1s,3s)-3-hydroxy-3-methylcyclobutyl)-1H-pyrazole-4-carboxamide]

The next lines start with the compound.

Row | SMILES | IC50 (Ba/F3-TEL-IGF-1R cells) | IC50 (IGF-1R)
18 | NC(=O)c1c(-c2ccc3ccc(-c4ccccc4)nc3c2)nn([C@H]2C[C@@H](CN3CCOCC3)C2)c1N [Example C012, 5-amino-1-((1s,3s)-3-(morpholinomethyl)cyclobutyl)-3-(2-phenylquinolin-7-yl)-1H-pyrazole-4-carboxamide] | ≤ 1000 nM | ≤ 100 nM
19 | COc1cc(-c2ccccc2)nc2c(F)c(-c3nn([C@H]4C[C@@](C)(O)C4)c(N)c3C(N)=O)ccc12 [Example C034, 5-amino-3-(8-fluoro-4-methoxy-2-phenylquinolin-7-yl)-1-((1s,3s)-3-hydroxy-3-methylcyclobutyl)-1H-pyrazole-4-carboxamide] | ≤ 1000 nM | ≤ 100 nM
20 | COc1cc(-c2ccccc2)nc2cc(-c3nn([C@H]4C[C@@](C)(O)C4)c(N)c3C(N)=O)ccc12 [Example C032, 5-amino-1-((1s,3s)-3-hydroxy-3-methylcyclobutyl)-3-(4-methoxy-2-phenylquinolin-7-yl)-1H-pyrazole-4-carboxamide] | ≤ 1000 nM | ≤ 100 nM
21 | CN1CCC(n2nc(-c3ccc4ccc(-c5ccccc5)nc4c3)c(C(N)=O)c2N)CC1 [Example C007, 5-amino-1-(1-methylpiperidin-4-yl)-3-(2-phenylquinolin-7-yl)-1H-pyrazole-4-carboxamide] |  | 1000 to 20000 nM
22 | NC(=O)c1c(-c2ccc3ccc(-c4ccccc4)nc3c2)nn(C2CCN(C(N)=O)CC2)c1N [Example C003, 4-(5-amino-4-carbamoyl-3-(2-phenylquinolin-7-yl)-1H-pyrazol-1-yl)piperidine-1-carboxamide] |  | 1000 to 20000 nM
23 | NC(=O)c1c(-c2ccc3ccc(-c4ccccc4)nc3c2)nn([C@H]2C[C@H](CN3CCNCC3)C2)c1N [Example C016, 5-amino-3-(2-phenylquinolin-7-yl)-1-((1r,3r)-3-(piperazin-1-ylmethyl)cyclobutyl)-1H-pyrazole-4-carboxamide] |  | ≤ 100 nM
24 | NC(=O)c1c(-c2ccc3ccc(-c4ccccc4)nc3c2)nn([C@H]2C[C@@H](C(=O)O)C2)c1N [Example C017, (1s,3s)-3-(5-amino-4-carbamoyl-3-(2-phenylquinolin-7-yl)-1H-pyrazol-1-yl)cyclobutane-1-carboxylic acid] |  | 1000 to 20000 nM
25 | NC(=O)c1c(-c2ccc3ccc(-c4ccccc4)nc3c2)nn(C2CC(=O)C2)c1N [Example C001, 5-amino-1-(3-oxocyclobutyl)-3-(2-phenylquinolin-7-yl)-1H-pyrazole-4-carboxamide] |  | 1000 to 20000 nM
26 | C[C@]1(O)C[C@@H](n2nc(-c3ccc4ccc(-c5ccccc5)nc4c3)c(C(N)=O)c2N)C1 [Example C005, 5-amino-1-((1s,3s)-3-hydroxy-3-methylcyclobutyl)-3-(2-phenylquinolin-7-yl)-1H-pyrazole-4-carboxamide] | ≤ 1000 nM | ≤ 100 nM
27 | CCOc1cc(-c2ccccc2)nc2c(F)c(-c3nn([C@H]4C[C@@](C)(O)C4)c(N)c3C(N)=O)ccc12 [Example C033, 5-amino-3-(4-ethoxy-8-fluoro-2-phenylquinolin-7-yl)-1-((1s,3s)-3-hydroxy-3-methylcyclobutyl)-1H-pyrazole-4-carboxamide] | ≤ 1000 nM | ≤ 100 nM
28 | C[C@]1(O)C[C@@H](n2nc(-c3ccc4ccc(-c5ccccc5)nc4c3F)c(C(N)=O)c2N)C1 [Example C028, 5-amino-3-(8-fluoro-2-phenylquinolin-7-yl)-1-((1s,3s)-3-hydroxy-3-methylcyclobutyl)-1H-pyrazole-4-carboxamide] |  | ≤ 100 nM
